Measured values published in the supplement of paper PMC7645387.

How the values were obtained:
Experiment in all cases: growth inhibition relative to DMSO control (fraction); higher = stronger growth inhibition
Conditions in all cases: treatment time: 6 days
HDFB = tested on: HDFB
Procedure: (§1)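 Drug combination matrices: GSK-LSD1 (0, 1, 10, 100 nM) was combined with a second epigenetic drug (0 to 10 uM) on MCC lines PeTa and MKL-1 and on HDFB fibroblasts for 6 days, in quadruplicate. Viability was read by CellTiter-Glo 2.0. The response is the fraction of growth inhibition relative to DMSO, as input to synergyfinder Bliss analysis.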

PeTa = tested on: PeTa
Procedure: as §1

MKL-1 = tested on: MKL-1
Procedure: as §1

c1ccc([C@@H]2C[C@H]2NC2CCNCC2)cc1 [GSK-LSD1] + CCOC(=O)NCCCC(=O)NCCc1ccccc1 [Santacruzamate A]
growth inhibition
Conditions | partner concentration 0 nM | partner concentration 1 nM | partner concentration 10 nM | partner concentration 100 nM | partner concentration 1000 nM | partner concentration 10000 nM
HDFB, GSK-LSD1 concentration 0 nM | – | 0.0152 | 0.0273 | -0.00476 | 0.025 | -0.0257
HDFB, GSK-LSD1 concentration 1 nM | 0.0274 | 0.0683 | 0.0641 | 0.0608 | 0.0549 | 0.0385
HDFB, GSK-LSD1 concentration 10 nM | 0.103 | 0.132 | 0.111 | 0.109 | 0.0931 | 0.0944
HDFB, GSK-LSD1 concentration 100 nM | 0.209 | 0.215 | 0.245 | 0.258 | 0.258 | 0.248
MKL-1, GSK-LSD1 concentration 0 nM | – | 0.00478 | -0.00416 | -0.0025 | -0.0148 | -0.0477
MKL-1, GSK-LSD1 concentration 1 nM | 0.0491 | 0.0627 | 0.0768 | 0.068 | 0.072 | 0.014
MKL-1, GSK-LSD1 concentration 10 nM | 0.266 | 0.253 | 0.298 | 0.281 | 0.242 | 0.184
MKL-1, GSK-LSD1 concentration 100 nM | 0.748 | 0.763 | 0.741 | 0.763 | 0.696 | 0.755
PeTa, GSK-LSD1 concentration 0 nM | – | -0.00232 | 0.00932 | 0.0171 | -0.000556 | -0.0248
PeTa, GSK-LSD1 concentration 1 nM | 0.0188 | 0.0434 | 0.0394 | 0.0494 | 0.0221 | -0.00432
PeTa, GSK-LSD1 concentration 10 nM | 0.412 | 0.412 | 0.418 | 0.432 | 0.466 | 0.403
PeTa, GSK-LSD1 concentration 100 nM | 0.786 | 0.751 | 0.762 | 0.748 | 0.793 | 0.814

c1ccc([C@@H]2C[C@H]2NC2CCNCC2)cc1 [GSK-LSD1] + Cc1cc2c(cc1N1C(=O)c3cccc4c(CCCO)ccc(c34)C1=O)n(C)c(=O)n2C [BAY299]
growth inhibition
Conditions | partner concentration 0 nM | partner concentration 1 nM | partner concentration 10 nM | partner concentration 100 nM | partner concentration 1000 nM | partner concentration 10000 nM
HDFB, GSK-LSD1 concentration 0 nM | – | -0.0107 | -0.0132 | 0.0763 | 0.607 | 0.697
HDFB, GSK-LSD1 concentration 1 nM | -0.0232 | -0.0193 | 0.0121 | 0.0867 | 0.635 | 0.702
HDFB, GSK-LSD1 concentration 10 nM | 0.076 | 0.0719 | 0.0472 | 0.207 | 0.674 | 0.727
HDFB, GSK-LSD1 concentration 100 nM | 0.0758 | 0.0715 | 0.0856 | 0.201 | 0.695 | 0.713
MKL-1, GSK-LSD1 concentration 0 nM | – | 0.0343 | -0.000673 | 0.0416 | 0.844 | 0.999
MKL-1, GSK-LSD1 concentration 1 nM | 0.104 | 0.0952 | 0.0872 | 0.0914 | 0.936 | 0.999
MKL-1, GSK-LSD1 concentration 10 nM | 0.516 | 0.425 | 0.457 | 0.475 | 0.972 | 1
MKL-1, GSK-LSD1 concentration 100 nM | 0.753 | 0.738 | 0.69 | 0.722 | 0.981 | 1
PeTa, GSK-LSD1 concentration 0 nM | – | -0.0148 | -0.062 | 0.00688 | 0.806 | 0.998
PeTa, GSK-LSD1 concentration 1 nM | -0.0592 | -0.0708 | -0.0758 | 0.0174 | 0.764 | 0.997
PeTa, GSK-LSD1 concentration 10 nM | 0.258 | 0.223 | 0.194 | 0.304 | 0.836 | 0.999
PeTa, GSK-LSD1 concentration 100 nM | 0.749 | 0.743 | 0.723 | 0.736 | 0.989 | 0.999
